What was measured:
Assay type in all cases: cell-based
integrin CD11c/CD18 = target: T1, integrin CD11c/CD18 (Homo sapiens, UniProt P20702); assay: HTS cell adhesion assay, K562 CD11c/CD18 cells on immobilized fibrinogen; conditions: for EC50 CD11c/CD18: K562 CD11c/CD18 cells, adhesion to fibrinogen, dose-response
T1 construct: expressed in transfected cells; host or cells: K562 (ATCC)
Method: (§1) K562 cells stably expressing CD11c/CD18 (K562 CD11c/CD18) were generated similarly. Mutant CD11bE320A has been described previously. K562 cells stably transfected with mutant integrin CD11bE320A/CD18 (K562 E320A) were generated according to literature protocols. All cell lines were maintained in Iscove's Modified Dulbecco's Medium (IMDM) supplemented with 10% heat-inactivated fetal bovine serum, 50 IU/mL penicillin and streptomycin and 0.5 mg/mL G418.
(§2) Cell adhesion assays with immobilized ligands were performed using the general protocol previously described and as illustrated in FIG. 1 [33]. Assays with all different K562 cell lines (K562, K562 CD11b/CD18, K562 CD11c/CD18 and K562 E320A) were performed in an identical fashion. Briefly, 384-well microplates (Corning 3700) were coated with 15 μg/mL fibrinogen (Fg) ligand in PBS^++ overnight at 4° C. At the same time, anti-CD18 (IB4) mAb was also coated. Subsequently, the coated wells were washed with 1% nonfat milk in TBS at room temperature for 1 hour. Next, the wells were washed 3 times with TBS, and the coated microplates were used in the HTS assays.
(§3) K562 CD11b/CD18, K562 CD11bE320A/CD18 and K562 CD11c/CD18 cells were washed with TBS, and cells were transferred to the Fg-coated wells of microplates in the assay buffer (Ca^2+ and Mg^2+ for physiological condition, Mn^2+ as the Positive control). A 1 μL aliquot of the compounds were transferred to each washed well with multichannel pipet from the 384-well plates.
(§4) The assay plates were incubated at 37° C. in the presence of small-molecule compounds for 30 min. To dislodge the non-adherent cell, the assay plates were gently inverted and kept in inverted position for 20 min at room temperature.
(§5) The cells were fixed with 37% formaldehyde in a small volume and the plates were kept inverted for 1 h. Upon the fixation, the solutions in the well were discarded. Next, the cells were fluorescently labeled with DAPI (0.5 μM final in TBS with 0.1% Triton X-100) and the quantitated with “Opera High Content Screening System” (Perkin Elmer).
Cell-adhesion under positive and negative control conditions was used to define the activity scale; signal corresponding to the number of non-small molecule treated cells adherent in activating buffer condition (in the presence of Mn^2+ ions as agonist, PC) was considered maximum (100% binding) and the signal corresponding to the number of non-small molecule treated cells adherent in basal buffer condition (in the presence of 1 mM each of Ca^2+ and Mg^2+, NC) was considered minimum (0% binding). […]
The compounds were diluted in DMSO by the final concentration 10 μM, 5 μM, 2.5 μM, 1.25 μM and 0.625 μM and stocked as sealed in 384-well plates at −80° C.

[1] = target: T2, mutant integrin CD11bE320A/CD18 (Homo sapiens, UniProt P11215, E336A); assay: HTS cell adhesion assay, K562 E320A cells on immobilized fibrinogen; conditions: five point dose-response
T2 construct: expressed in transfected cells; host or cells: K562 (ATCC)
Summary of the method: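 K562 cells expressing the indicated CD11b/CD18 integrin were added to wells coated with 15 μg/mL fibrinogen and incubated with compound for 30 min at 37 °C in Ca2+/Mg2+ buffer. Non-adherent cells were removed by plate inversion. Adherent cells were fixed, stained with DAPI and counted by high-content imaging, scaled from 0% (1 mM Ca2+/Mg2+) to 100% (Mn2+ activation).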

[2] = target: T3, wild-type integrin CD11b/CD18 (Homo sapiens, UniProt P11215); assay: HTS cell adhesion assay, K562 CD11b/CD18 cells on immobilized fibrinogen
T3 construct: expressed in transfected cells; host or cells: K562 (ATCC)
Method: as §1, with “Mutant CD11bE320A has been described previously.” left out
as §2, §3, §4, §5
Cell-adhesion under positive and negative control conditions was used to define the activity scale; signal corresponding to the number of non-small molecule treated cells adherent in activating buffer condition (in the presence of Mn^2+ ions as agonist, PC) was considered maximum (100% binding) and the signal corresponding to the number of non-small molecule treated cells adherent in basal buffer condition (in the presence of 1 mM each of Ca^2+ and Mg^2+, NC) was considered minimum (0% binding).

[3] = Table 3, adhesion to fibrinogen
[4] = Table 3, adhesion to fibrinogen, 5-point dose-response
[5] = Table 4, adhesion to fibrinogen, dose-response
[6] = Table 4, adhesion to fibrinogen

Row | SMILES | EC50 [1, 3] | EC50 (integrin CD11c/CD18) | further results
1 | O=C(CN1C(=O)c2ccccc2C1=O)Nc1ccc(-c2nc3ccccc3o2)cc1 [Compound 1255636] | 0.678 µM | – | EC50 CD11c/CD18 (integrin CD11c/CD18; Table 4): N/A Very Low; EC50 CD11b/CD18 [2, 4]: Very Low; EC50 CD11b/CD18 [2, 5]: N/A Very Low
2 | C=CCn1c(SCC(=O)c2[nH]c(C)c(C(=O)OC)c2C)nc2scc(-c3ccc(OC)c(OC)c3)c2c1=O [Compound 1745635] | 3.71 µM | – | EC50 CD11c/CD18 (integrin CD11c/CD18; Table 3): Very low; EC50 CD11c/CD18 (integrin CD11c/CD18; Table 4): N/A Very Low; EC50 [1, 6]: 3.71 µM; EC50 CD11b/CD18 [2, 5]: N/A Very Low
3 | O=C(O)CCN1C(=O)/C(=C\c2ccc(-c3nc4ccccc4s3)o2)SC1=S [Compound 2030970] | – | – | EC50 CD11c/CD18 (integrin CD11c/CD18; Table 4): N/A Very Low; EC50 E320A [1, 3]: Very Low; EC50 CD11b/CD18 [2, 4]: Very Low; EC50 CD11b/CD18 [2, 5]: N/A Very Low
4 | O=C(O)CCN1C(=O)/C(=C/c2ccc(-c3nc4ccccc4s3)o2)SC1=S [Compound 2030972] | 6.69 µM | – | EC50 CD11c/CD18 (integrin CD11c/CD18; Table 3): Very Low; EC50 CD11c/CD18 (integrin CD11c/CD18; Table 4): N/A Very Low; EC50 [1, 6]: 6.69 µM; EC50 CD11b/CD18 [2, 4]: Very Low; EC50 CD11b/CD18 [2, 5]: N/A Very Low
5 | CCn1c(=NC(=O)c2ccc(N3C(=O)CCC3=O)cc2)sc2c(OC)ccc(OC)c21 [Compound 2150886] | 5.05 µM | 2.13 µM | –
6 | CCOC(=O)c1c(NC(=O)c2cc(-c3ccc(Cl)s3)nc3ccccc23)sc(C(N)=O)c1C [Compound 2163411] | 6.56 µM | 1.77 µM | –
7 | O=C(Nc1ccc2nc(-c3ccco3)c(-c3ccco3)nc2c1)N1CCCCCC1 [Compound 2214811] | 4.68 µM | 2.54 µM | –
8 | Nc1c(C(=O)Nc2nccs2)sc2nc(-c3cccs3)cc(C(F)(F)F)c12 [Compound 2252798] | 4.1 µM | 4.06 µM | –
9 | O=C(Nc1nccs1)c1cccc(N2C(=O)c3cccc4c([N+](=O)[O-])ccc(c34)C2=O)c1 [Compound 2254616] | 4.43 µM | 1.87 µM | –
10 | O=c1c(-c2nc3ccccc3o2)c2oc3ccccc3n2c2ccccc12 [Compound 2321209] | 5.3 µM | 2.63 µM | –
11 | N#C/C(=C\c1ccc(OCc2ccccc2)cc1)C(=O)Nc1nc2c(s1)CCN(Cc1ccccc1)C2 [Compound 2327777] | 21.9 µM | – | EC50 CD11c/CD18 (integrin CD11c/CD18; Table 3): Infinite
12 | Cc1ccc2nc(-c3ccc(NC(=O)COC(=O)c4cncc(Br)c4)cc3)sc2c1 [Compound 2365417] | 2.83 µM | 4.04 µM | –
13 | C=CCn1c(SCC(=O)c2ccc(CNC(C)=O)o2)nc2scc(C3CC3)c2c1=O [Compound 2569132] | 6.29 µM | 5.28 µM | –
14 | Cc1ccc(C)c(NC(=S)NC(NC(=O)Cc2cccc3ccccc23)C(Cl)(Cl)Cl)c1 (stereo not shown) [Compound 2831455] | 5.08 µM | 6.87 µM | –
15 | COC(=O)c1cc(OC)c(OC)cc1NC(=O)c1cc(-c2ccccc2)nc2ccccc12.Cl [Compound 2965657] | 12.8 µM | – | EC50 CD11c/CD18 (integrin CD11c/CD18; Table 3): Infinite
16 | CCCCn1c(SCC(=O)c2ccc(OC)cc2OC)nc2cc(S(N)(=O)=O)ccc21 [Compound 2997788] | 5.27 µM | 4.72 µM | –
17 | O=C(Nc1nc(-c2ccco2)c(-c2ccco2)s1)C1CC(=O)N(c2ccc3c(c2)OCCO3)C1 (stereo not shown) [Compound 2998894] | 5.86 µM | 3.05 µM | –
18 | CCOC(=O)Cc1csc(NC(=O)c2sc3nc4c(C)cc(C)cc4cc3c2N)n1 [Compound 3207334] | 5.17 µM | 1.99 µM | –
19 | CCOC(=O)N1CCC(NC(=O)c2ccc3c(c2)sc2nc(-c4ccc(OC)cc4)cn23)CC1 [Compound 3235854] | 5.55 µM | 2.71 µM | –
20 | Cc1ccc(CCN2CC(C(=O)NCCCN3CCCCCC3)CC2=O)cc1 (stereo not shown) [Compound 3237466] | 3.69 µM | 1.35 µM | –

Row | SMILES | EC50 [1, 3] | EC50 (integrin CD11c/CD18) | further results
21 | COc1ccc2cc3cc(C(=O)Nc4ccc5c(c4)OCCO5)oc3nc2c1 [Compound 3241193] | 1.28 µM | 0.691 µM | –
22 | O=C1Nc2ccccc2SC(c2ccccc2)C1O (stereo not shown) [Compound 3242458] | 2.83 µM | 1.89 µM | –
23 | Cc1nc(C)c(C(=O)Nc2nc3c(C)cccc3s2)o1 [Compound 3244965] | 4.91 µM | 4.03 µM | –
24 | Cc1onc(-c2c(Cl)cccc2Cl)c1C(=O)NC(=S)Nc1sc2c(c1C(N)=O)CCC(C)C2 (stereo not shown) [Compound 3466680] | 5.99 µM | 6.26 µM | –
25 | O=C(ONc1ccc(N=NC(=O)c2ccccc2O)cc1)c1ccccc1 [Compound 4483668] | 5.42 µM | 4.64 µM | –
26 | CCc1nnc(NC(=O)c2sc3nc4c(cc3c2N)CCCCCC4)s1 [Compound 5143923] | 5.31 µM | 3.01 µM | –
27 | O=C(Cn1c(=O)oc2cc(S(=O)(=O)N3CCCC3)ccc21)NC1CCCc2ccccc21 (stereo not shown) [Compound 5308150] | 1.26 µM | – | EC50 CD11c/CD18 (integrin CD11c/CD18; Table 3): Very Low; EC50 CD11c/CD18 (integrin CD11c/CD18; Table 4): N/A Very Low; EC50 [1, 6]: 1.26 µM; EC50 CD11b/CD18 [2, 5]: N/A Very Low
28 | COC(=O)c1ccc2c(c1)N(Cc1nc(-c3cccc(C)c3)oc1C)C(=O)C1CCCN21 (stereo not shown) [Compound 5309602] | 6.42 µM | 2.56 µM | –
29 | Cn1c(C(=O)NCCN2CCc3ccccc3C2)cc2c(=O)n(C)c3ccccc3c21 [Compound 5309909] | 259 µM | – | EC50 CD11c/CD18 (integrin CD11c/CD18; Table 3): Infinite
30 | C/C(=N/NC(=O)c1cc2ccccc2cc1O)C1C(=O)c2ccccc2C1=O [Compound 5431927] | 2.35 µM | 2.01 µM | –
31 | Cc1ccc(/C=C/C(=O)Nc2ccc([N+](=O)[O-])c(NC(=O)/C=C/c3ccc(C)o3)c2)o1 [Compound 5736971] | 6.55 µM | 4.5 µM | –
32 | C=CCOC(=O)c1cc(-c2ccc(/C=C3\C(=O)NC(=O)C(C#N)=C3C)o2)ccc1Cl [Compound 5769297] | 2.53 µM | 2.54 µM | –
33 | COCCCNC(=O)c1c(N)n(/N=C/c2cccs2)c2nc3ccccc3nc12 [Compound 6880740] | 4.99 µM | 2.6 µM | –
34 | O=C(N/N=C/c1ccc(-c2ccc(S(=O)(=O)Nc3ncccn3)cc2)o1)c1cc2ccccc2cc1O [Compound 6892904] | – | 2.42 µM | EC50 [1, 6]: 5.49 µM
35 | CC(C)CNC(=O)c1c(N)n(/N=C/c2ccccn2)c2nc3ccccc3nc12 [Compound 9568664] | 6.19 µM | 3.73 µM | –
36 | CCCCCCCC(=O)Nc1ccc(C(=O)N/N=C/c2cccc([N+](=O)[O-])c2)cc1 [Compound 9774264] | 4.16 µM | 1.03 µM | –
37 | CCOc1ccc(NC(=O)c2ccc(CNc3c(NC4CCCCC4)c(=O)c3=O)cc2)cc1 [Compound 11957216] | 6.76 µM | 4.31 µM | –
38 | COc1cc(NC(=O)Cn2c(=O)n(-c3cccc(C)c3)c(=O)c3c(C)c(C)sc32)cc(OC)c1 [Compound 12004750] | 6.23 µM | 5.84 µM | –
39 | Cc1ccc2nc(-c3ccc(NC(=O)CCS(=O)(=O)c4ccccc4)cc3)sc2c1 [Compound 12005977] | 6.72 µM | 5.05 µM | –
40 | Cc1ccccc1Cn1c(=O)n(CC2CCC(C(=O)NCCc3ccccc3)CC2)c(=O)c2ccccc21 (stereo not shown) [Compound 12006068] | 6.84 µM | 2.46 µM | –

— patent US20180319865A1, “Identification of Novel Small Molecule Beta2 Integrin Agonists” (Rush University Medical Center, priority 2016, published 2018)
